Target: T1, chimeric human H3 receptor (Homo sapiens, UniProt Q9Y5N1)
T1 construct: made in house; host or cells: Sf9 insect cells (baculovirus); P2 membrane preparation
Experiment: Chimeric human H3 receptor GTP binding assay (agonist-stimulated GTP-gamma35S binding, Example 7)
Assay type: biochemical
From the text: This Example illustrates a representative assay for evaluating agonist-stimulated GTP-gamma^35S binding (“GTP binding”) activity. […] This agonist-stimulated GTP binding activity can also be used to detect partial agonism mediated by antagonist compounds. A compound analyzed in this assay is referred to herein as a “test compound.”
Four independent baculoviral stocks (one directing the expression of the chimeric human H3 receptor and three directing the expression of each of the three subunits of a heterotrimeric G-protein) are used to infect a culture of Sf9 cells as described above. P2 membranes are prepared as described above, and agonist-stimulated GTP binding on the P2 membranes is assessed using histamine (Sigma Chemical Co., St. Louis, Mo.) as agonist in order to ascertain that the receptor/G-protein-alpha-beta-gamma combination(s) yield a functional response as measured by GTP binding. P2 membranes are resuspended by Dounce homogenization (tight pestle) in GTP binding assay buffer (50 mM Tris pH 7.4, 120 mM NaCl, 5 mM MgCl2, 2 mM EGTA, 1 mg/ml BSA, 0.2 mg/ml bacitracin, 0.02 mg/ml aprotinin, 0.01 mg/ml saponin, 10 μM GDP) and added to assay tubes at a concentration of 35 μg protein/reaction tube. After adding increasing doses of histamine at concentrations ranging from 10^−12 M to 10^−5 M, reactions are initiated by the addition of […] GTP-gamma^35S (PERKIN ELMER; Boston, Mass.) with a final assay volume of 0.20 ml. In competition experiments, non-radiolabeled test compounds are added to separate reactions at concentrations ranging from 10^−10 M to 10^−6 M along with 1 μM histamine to yield a final volume of 0.20 ml.
Neutral antagonists are antagonists that are substantially free of inherent agonist activity, and include those test compounds that reduce the histamine-stimulated GTP binding activity towards, but not below, baseline levels. In contrast, in the absence of added histamine, inverse agonists reduce the GTP binding activity of the receptor-containing membranes below baseline.
After a 60-min incubation at room temperature, reactions are terminated by vacuum filtration over WHATMAN GF/C filters (pre-soaked in wash buffer, 0.1% BSA) followed by washing with ice-cold wash buffer (50 mM Tris pH 7.4, 120 mM NaCl). The amount of receptor-bound (and thereby membrane-bound) GTP-gamma^35S is determined by measuring the filter-bound radioactivity, preferably by liquid scintillation spectrometry of the washed filters. Non-specific binding is determined in parallel assays including 10 μM unlabeled GTP-gammaS and typically represents less than 5 percent of total binding. Data is expressed as percent above basal (baseline). The results of GTP binding experiments are analyzed using SIGMAPLOT software (SPSS Inc., Chicago, Ill.). IC50 values are calculated by non-linear regression analysis of dose-response curves using Kaleidograph (Synergy Software, Reading, Pa.).
Alternatively the data is analyzed as follows. First, the average bound radioactivity from negative control wells (no agonist) is subtracted from the bound radioactivity detected for each of the other experimental wells. Second, average bound radioactivity is calculated for the positive control wells (agonist wells). Then, percent inhibition for each compound tested is calculated using the equation:
Calculated IC50 values are converted to K1 values by the Cheng-Prusoff correction (Cheng and Prusoff (1973) Biochem. Pharmacol. 22(23):3099-3108). Accordingly, the following equation: Ki=IC50/(1+[L]/EC50) is used, where [L] is the histamine concentration in the GTP binding assay, and EC50 is the concentration of histamine producing a 50% response, as determined by a dose-response analysis using concentrations of histamine ranging from 10^−10 M to 10^−6M. […]

[1] = Table II, "*" = Ki in assay of Example 7 less than 1 micromolar
[2] = Table II "Ki", symbol *, assay of Example 7
[3] = assay of Example 7, "*" in Ki of Table II

T1 sequence (Q9Y5N1 with tags, fused parts or gaps): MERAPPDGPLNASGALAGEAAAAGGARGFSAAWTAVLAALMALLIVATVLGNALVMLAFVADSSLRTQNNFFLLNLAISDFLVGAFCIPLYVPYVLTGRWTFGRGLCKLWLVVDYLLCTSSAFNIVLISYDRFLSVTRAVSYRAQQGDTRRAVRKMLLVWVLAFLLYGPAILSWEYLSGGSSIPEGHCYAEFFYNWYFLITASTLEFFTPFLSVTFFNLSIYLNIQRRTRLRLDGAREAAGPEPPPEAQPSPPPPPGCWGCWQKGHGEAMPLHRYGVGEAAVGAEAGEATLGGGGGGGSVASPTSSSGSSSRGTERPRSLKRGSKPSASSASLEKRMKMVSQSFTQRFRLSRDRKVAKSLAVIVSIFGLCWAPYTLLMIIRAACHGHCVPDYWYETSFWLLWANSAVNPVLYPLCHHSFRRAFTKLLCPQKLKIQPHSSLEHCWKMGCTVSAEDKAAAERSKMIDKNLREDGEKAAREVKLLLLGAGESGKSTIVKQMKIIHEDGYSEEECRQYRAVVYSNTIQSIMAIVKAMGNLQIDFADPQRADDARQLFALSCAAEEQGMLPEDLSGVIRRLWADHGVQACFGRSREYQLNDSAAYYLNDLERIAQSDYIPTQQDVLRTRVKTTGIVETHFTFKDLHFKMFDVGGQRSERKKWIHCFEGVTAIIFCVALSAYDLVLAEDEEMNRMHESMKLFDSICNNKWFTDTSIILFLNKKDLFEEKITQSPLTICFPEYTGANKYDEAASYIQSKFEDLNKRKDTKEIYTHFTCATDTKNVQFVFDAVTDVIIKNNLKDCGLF

| Structure (SMILES) | Ki [1] | Ki [2] | further results |
| --- | --- | --- | --- |
| Cn1cc(-c2ccc3c(c2)CCN(CC(=O)N2CCN(C4CCC4)CC2)C3)ccc1=O [Compound 192, 5-{2-[2-(4-cyclobutylpiperazin-1-yl)-2-oxoethyl]-1,2,3,4-tetrahydroisoquinolin-6-yl}-1-methylpyridin-2(1H)-one] | < 1000 nM |  |  |
| CS(=O)(=O)c1cccc(-c2nc3c(s2)CN(CC(=O)N2CCN(C4CCC4)CC2)CC3)c1 [Compound 99, 5-[2-(4-cyclobutylpiperazin-1-yl)-2-oxoethyl]-2-[3-(methylsulfonyl)phenyl]-4,5,6,7-tetrahydro[1,3]thiazolo [5,4-c]pyridine] | < 1000 nM |  |  |
| CCOc1cccc(-c2ccc3c(c2)CCN(CC(=O)N2CCN(C4CCCC4)CC2)C3)c1 [Compound 483, 2-[2-(4-cyclopentylpiperazin-1-yl)-2-oxoethyl]-6-(3-ethoxyphenyl)-1,2,3,4-tetrahydroisoquinoline] |  | < 1000 nM |  |
| CCCOc1ccc(-c2nc3c(s2)CN(CC(=O)N2CCN(C4CCC4)CC2)CC3)cc1 [Compound 334, 5-[2-(4-cyclobutylpiperazin-1-yl)-2-oxoethyl]-2-(4-propoxyphenyl)-4,5,6,7-tetrahydro[1,3]thiazolo [5,4-c]pyridine] |  |  | Ki [3]: < 1000 nM |
| COc1ncc(-n2cc3c(n2)CCN(CC(=O)N2CCN(C4CCC4)CC2)C3)cn1 [Compound 256, 5-[2-(4-cyclobutylpiperazin-1-yl)-2-oxoethyl]-2-(2-methoxypyrimidin-5-yl)-4,5,6,7-tetrahydro-2H-pyrazolo[4,3-c]pyridine] | < 1000 nM |  |  |
| COc1ccc2c(c1)CCN(CC(=O)N1CCN(C3CCC3)CC1)CC2 [Compound 77, 3-[2-(4-cyclobutylpiperazin-1-yl)-2-oxoethyl]-7-methoxy-2,3,4,5-tetrahydro-1H-3-benzazepine] |  |  | Ki (Table I, P2 membranes of Sf9 cells, 1 μM histamine as agonist, Ki from IC50 by Cheng-Prusoff): < 1000 nM |
| CC(=O)c1ccc(-n2cc3c(n2)CCN(CC(=O)N2CCN(C4CCC4)CC2)C3)nn1 [Compound 202, 1-(6-{5-[2-(4-cyclobutylpiperazin-1-yl)-2-oxoethyl]-4,5,6,7-tetrahydro-2H-pyrazolo[4,3-c]pyridin-2-yl}pyridazin-3-yl)ethanone] | < 1000 nM |  |  |
| COc1ccc(-n2ncc3c2CCN(CC(=O)N2CCN(C4CCC4)CC2)C3)nn1 [Compound 290, 5-[2-(4-cyclobutylpiperazin-1-yl)-2-oxoethyl]-1-(6-methoxypyridazin-3-yl)-4,5,6,7-tetrahydro-1H-pyrazolo[4,3-c]pyridine] |  |  | Ki [3]: < 1000 nM |
| CC1CCC[C@H]2CN(C(=O)CN3CCc4nc(Cl)sc4C3)CCN12 (stereo in doubt) [Compound 147, 2-[(2-chloro-6,7-dihydro[1,3]thiazolo [5,4-c]pyridin-5(4H)-yl)acetyl]-6-methyloctahydro-2H-pyrido[1,2-a]pyrazine] | < 1000 nM |  |  |
| CCOC(=O)c1ccc(-c2nc3c(s2)CN(CC(=O)N2CCN(C4CCC4)CC2)CC3)cc1 [Compound 375, ethyl 4-{5-[2-(4-cyclobutylpiperazin-1-yl)-2-oxoethyl]-4,5,6,7-tetrahydro[1,3]thiazolo [5,4-c]pyridin-2-yl}benzoate] |  |  | Ki [3]: < 1000 nM |
| CC(=O)c1ccc(-n2cc3c(n2)CCN(CC(=O)N2CCN(C4CCC4)CC2)C3)cc1 [Compound 94, 1-(4-{5-[2-(4-cyclobutylpiperazin-1-yl)-2-oxoethyl]-4,5,6,7-tetrahydro-2H-pyrazolo[4,3-c]pyridin-2-yl}phenyl)ethanone] | < 1000 nM |  |  |
| O=C(CN1CCc2cc(-c3cncnc3)ccc2C1)N1CCN(C2CCCC2)CC1 [Compound 392, 2-[2-(4-cyclopentylpiperazin-1-yl)-2-oxoethyl]-6-pyrimidin-5-yl-1,2,3,4-tetrahydroisoquinoline] |  |  | Ki [3]: < 1000 nM |
| CC(=O)c1ccc2c(c1)CCN(CC(=O)N1CCN3C(C)CCCC3C1)C2 (stereo not shown) [Compound 142, 1-{2-[2-(6-methyloctahydro-2H-pyrido[1,2-a]pyrazin-2-yl)-2-oxoethyl]-1,2,3,4-tetrahydroisoquinolin-6-yl}ethanone] | < 1000 nM |  |  |
| O=C(NC1CCCC1)c1ccc2c(c1)CCN(CC(=O)N1CCN(C3CCC3)CC1)C2 [Compound 88, 2-[2-(4-cyclobutylpiperazin-1-yl)-2-oxoethyl]-N-cyclopentyl-1,2,3,4-tetrahydroisoquinoline-6-carboxamide] | < 1000 nM |  |  |
| CCC(C)N1CCN(C(=O)CN2CCc3cc(-c4ccc(S(C)(=O)=O)cc4)ccc3C2)CC1 (stereo not shown) [Compound 396, 2-[2-(4-sec-butylpiperazin-1-yl)-2-oxoethyl]-6-[4-(methylsulfonyl)phenyl]-1,2,3,4-tetrahydroisoquinoline] |  |  | Ki [3]: < 1000 nM |
| O=C(CN1CCc2cc(-c3cncnc3)nnc2C1)N1CCN(C2CCC2)CC1 [Compound 232, 7-[2-(4-cyclobutylpiperazin-1-yl)-2-oxoethyl]-3-pyrimidin-5-yl-5,6,7,8-tetrahydropyrido[3,4-c]pyridazine] | < 1000 nM |  |  |

Continued, in another order:

| Ki [1] | Ki [2] | Structure (SMILES) | further results |
| --- | --- | --- | --- |
|  | < 1000 nM | CC1CCCC1N1CCN(C(=O)CN2CCc3cc(-c4cncnc4)ccc3C2)CC1 (stereo not shown) [Compound 613, 2-{2-[4-(2-methylcyclopentyl)piperazin-1-yl]-2-oxoethyl}-6-pyrimidin-5-yl-1,2,3,4-tetrahydroisoquinoline] |  |
|  | < 1000 nM | COCC1CCN(c2ccc3c(n2)CCN(CC(=O)N2CCN(C4CCC4)CC2)C3)CC1 [Compound 673, 6-[2-(4-cyclobutylpiperazin-1-yl)-2-oxoethyl]-2-[4-(methoxymethyl)piperidin-1-yl]-5,6,7,8-tetrahydro-1,6-naphthyridine] |  |
|  | < 1000 nM | C[C@H]1CN(C(=O)CN2CCc3cc(-c4cncnc4)ccc3C2)CCN1C1C[C@H]2CC[C@@H]1C2 (stereo partly drawn) [Compound 624, 2-(2-{(3S)-4-[(1R,4S)-bicyclo[2.2.1]hept-2-yl]-3-methylpiperazin-1-yl}-2-oxoethyl)-6-pyrimidin-5-yl-1,2,3,4-tetrahydroisoquinoline] |  |
|  | < 1000 nM | COc1ccc(-c2ccc3c(c2)CCN(CC(=O)N2CCN(C4CCCC4)CC2)C3)cc1 [Compound 521, 2-[2-(4-cyclopentylpiperazin-1-yl)-2-oxoethyl]-6-(4-methoxyphenyl)-1,2,3,4-tetrahydroisoquinoline] |  |
|  | < 1000 nM | COCCCNc1ccc2c(n1)CCN(CC(=O)N1CCN(C3CCC3)CC1)C2 [Compound 664, 6-[2-(4-cyclobutylpiperazin-1-yl)-2-oxoethyl]-N-(3-methoxypropyl)-5,6,7,8-tetrahydro-1,6-naphthyridin-2-amine] |  |
|  | < 1000 nM | CN(C)c1ccc(-c2ccc3c(c2)CCN(CC(=O)N2CCN(C4CCCC4)CC2)C3)cc1 [Compound 533, 4-{2-[2-(4-cyclopentylpiperazin-1-yl)-2-oxoethyl]-1,2,3,4-tetrahydroisoquinolin-6-yl}-N,N-dimethylaniline] |  |
|  | < 1000 nM | COC[C@H]1CCCN1c1ccc2c(n1)CCN(CC(=O)N1CCN(C3CCC3)CC1)C2 [Compound 679, 6-[2-(4-cyclobutylpiperazin-1-yl)-2-oxoethyl]-2-[(2R)-2-(methoxymethyl)pyrrolidin-1-yl]-5,6,7,8-tetrahydro-1,6-naphthyridine] |  |
|  | < 1000 nM | CN(C)c1ccc(-c2ccc3c(c2)CCN(CC(=O)N2CCN(C4CCC4)CC2)C3)cc1 [Compound 532, 4-{2-[2-(4-cyclobutylpiperazin-1-yl)-2-oxoethyl]-1,2,3,4-tetrahydroisoquinolin-6-yl}-N,N-dimethylaniline] |  |
|  | < 1000 nM | COc1cccc(-c2ccc3c(c2)CCN(CC(=O)N2CCN(C4CCC4)CC2)C3)n1 [Compound 633, 2-[2-(4-cyclobutylpiperazin-1-yl)-2-oxoethyl]-6-(6-methoxypyridin-2-yl)-1,2,3,4-tetrahydroisoquinoline] |  |

From patent publication US20110082130A1 (LIGAND PHARMACEUTICALS, INC., priority 2006, published 2011)
